Activity calls are given as the source filed them. The rule behind the calls is not given here. *1 amine or outer side, *2 acyl side, *3 side chain or, on linkers, in order; H or OH if unused. Where a SMILES comes first, the peptide text is derived from it. [ ]: non-standard residue; d: D form. X2 = CCC[C@@H](N[*:1])[C@H](C)C(=O)O[C@H](C(=O)[*:2])[C@@H](C)CC; X1 = CC(N[*:1])C(=O)C(C)(C)C(=O)[*:2]; NMeY = CN[C@@H](Cc1ccc(O)cc1)C(=O)O; NMeL = CN[C@@H](CC(C)C)C(=O)O; NMeV = CN[C@H](C(=O)O)C(C)C; NMeA = CN[C@@H](C)C(=O)O Bounds are passed on as bounds.

The assay has as its system 697B B-cell line, NF-kB luciferase reporter luminescence. In words: NF-kB reporter inhibition in B cells, dose response, selectivity assay for T-cell antigen receptor NF-kB inhibitors, 697B cells, luminescence (AID 489033).
What is called IC50 is the concentration at which inhibition is half-maximal. For `O=C(COc1ccc2c(-c3ccccc3)cc(=O)oc2c1)Nc1cccnc1`, the IC50 is > 80 µM (inactive).

As to `O=C(Nc1nc(-c2ccccn2)cs1)c1ccc(Cl)s1`, the 50% inhibitory concentration (IC50) is less than 0.16 µM.

On to `O=C(NCc1ccc2c(c1)OCO2)c1cc([N+](=O)[O-])ccc1N1CCOCC1`, for which the IC50 is > 80 µM (inactive).

`Cc1ccc(Nc2cc(C)nn2-c2nc(C)cc(=O)[nH]2)cc1`: the half-inhibitory concentration (IC50) was 0.95 µM.

On to `CC(C)Nc1ccc(C(CC(N)=O)NC(=O)Cc2ccc(Br)cc2)cc1[N+](=O)[O-]` (stereo unspecified), for which the IC50 was 37.8 µM (inactive).

As for `CCN(CC)c1ccc2nc3ccc(N)cc3[n+](-c3ccccc3)c2c1`, the IC50 is 57.5 µM (inactive).

On to `COc1cc2nc(NC(=O)c3ccco3)sc(=O)c2cc1OC`, for which the half-maximal inhibitory concentration (IC50) was 0.67 µM.

Consider `O=Cc1cc2ccccc2nc1SCc1ccc(Cl)c(Cl)c1`, for which the IC50 was 48.8 µM (inactive).

With `CCC[C@H]1NC(=O)[C@H](C)N(C)C(=O)C(C)(C)C(=O)C(C)NC(=O)[C@H](Cc2ccc(OC)cc2)N(C)C(=O)[C@H](C(C)C)N(C)C(=O)CNC(=O)[C@H](CC(C)C)N(C)C(=O)CNC(=O)[C@H]([C@@H](C)CC)OC(=O)[C@H]1C` (stereo partly specified) (cyclo(G[NMeL]G[NMeV][NMeY](Me)[X1][NMeA][X2])), the IC50 is 29.3 µM (inactive).

For the compound `CC1(C)Cc2nc3sc4c(=O)n(CC(=O)NCc5ccccc5)cnc4c3cc2CO1`, the IC50 is > 80 µM (inactive).

Take `C=C1C(=O)C=C2CN(C(=O)c3ccccc3)[C@@](Cc3ccc(F)cc3)(C(=O)OC)[C@@H]12`: the concentration for half-maximal inhibition (IC50) was 1.01 µM.

As to `O=C(NC(Nc1nc2ccc([N+](=O)[O-])cc2s1)(C(F)(F)F)C(F)(F)F)c1ccccc1`, the half-maximal inhibitory concentration (IC50) was 0.72 µM.

Turning to `Cc1ccc(C(=O)N/N=C/c2ccc([N+](=O)[O-])s2)cc1`, the 50% inhibitory concentration (IC50) is 4.21 µM.

For the compound `CCCCCCCCC[n+]1cccc2c3ccccc3ccc21`, the half-inhibitory concentration (IC50) was 1.98 µM.

For `Cc1ccc(COC(=O)c2cc([N+](=O)[O-])ccc2N2CCOCC2)cc1`, the IC50 is > 80 µM (inactive).

Turning to `Cc1cc(C)cc(C(=O)N2CC(=O)Nc3ccccc32)c1`, the IC50 is > 80 µM (inactive).

On to `CCOCCOC(=O)c1[nH]c2c(c1C)C(=O)CC(c1ccccc1)C2` (stereo unspecified), for which the IC50 is > 80 µM (inactive).

Consider `COc1cccc(N2CCN(C(=O)c3cn(Cc4ccccc4)nc3-c3cccnc3)CC2)c1`, for which the IC50 was > 80 µM (inactive).

With `COc1ccc(COC(=O)c2cc([N+](=O)[O-])ccc2N2CCOCC2)cc1F`, the IC50 was 37.1 µM (inactive).

With `COc1cc(/C=C/c2ccc3cccc(O)c3n2)cc(OC)c1OC`, the half-inhibitory concentration (IC50) is 0.63 µM.

As to `CC(C)Cn1c(N)c(C(=O)CSc2ccc3c(c2)OCCO3)c(=O)n(C)c1=O`, the IC50 is 51.7 µM (inactive).

Consider `C=C1C(=O)O[C@H]2C[C@@H](C)[C@@H]3C=CC(=O)[C@@]3(C)C[C@H]12`, for which the IC50 was 1.25 µM.

Turning to `CC(=O)Nc1ccc(S(=O)(=O)N2c3ccc(F)cc3CCC2C)cc1` (stereo unspecified), the IC50 is > 80 µM (inactive).

As for `COc1cc(-c2noc(C)c2C#Cc2ccsc2)cc(OC)c1OC`, the IC50 was 77.7 µM (inactive).

Consider `C[C@]12CC[C@H](O)C[C@H]1CC[C@@H]1[C@@H]2CC[C@]2(C)[C@@H](C3=CC(=O)OC3)CC[C@]12O`, for which the IC50 is 0.67 µM.

As for `O=C(Nc1nc2ccc(S(=O)(=O)N3CCCC3)cc2s1)C1CCCCC1`, the IC50 was > 80 µM (inactive).

With `COc1ccc(Nc2cc(C)nc(-n3nc(C)cc3C)n2)cc1`, the IC50 was > 80 µM (inactive).

Regarding `COc1cccc(N2CCN(C(=O)c3ccc(CS(=O)c4ccccc4C)o3)CC2)c1` (stereo unspecified), the IC50 is > 80 µM (inactive).

Turning to `CCCCS(=O)(=O)/C=C\C=C/S(=O)(=O)CCCC`, the concentration for half-maximal inhibition (IC50) is 3.51 µM.

As for `Clc1ccc2c(c1)C(C1=NCCN1)c1ccccc1CS2` (stereo unspecified), the IC50 is > 80 µM (inactive).

Consider `CCOC(=O)c1[nH]c(C)c(C(=O)Nc2cc(Cl)ccc2C)c1C`, for which the IC50 was > 80 µM (inactive).

Consider `CC(C)CCOc1cccc(OCC(=O)Nc2ccncc2)c1`, for which the IC50 is > 80 µM (inactive).

As for `COC(=O)c1[nH]c2ccc(F)cc2c1NS(=O)(=O)c1ccc(OC)cc1`, the IC50 was > 80 µM (inactive).

For `COCCn1c(C)cc(C2=NNC(=Nc3ccccc3F)SC2)c1C`, the IC50 was 20.7 µM (inactive).

With `Cc1cc(C)c(CN2CCN(C(=O)Cn3cnc4c(OCc5ccccc5)ncnc43)CC2)c(C)c1`, the IC50 is > 80 µM (inactive).

As for `COc1ccc(-n2cc(-c3ccc(C)cc3)[n+]3c2SCC3)cc1`, the IC50 is > 80 µM (inactive).

For the compound `CC1(C)CC(N2CCN(C(c3ccccc3)c3ccccc3)CC2)=CC(=[N+]2CCCCC2)C1`, the concentration for half-maximal inhibition (IC50) is 1.64 µM.

Consider `CC(=O)N1c2ccc(S(=O)(=O)N3CCC(C(=O)Nc4cccc(C)n4)CC3)cc2CC1C` (stereo unspecified), for which the IC50 was 0.79 µM.

`CC1C/C(=C/c2ccncc2)C(=O)/C(=C/c2ccncc2)C1` (stereo unspecified): the concentration for half-maximal inhibition (IC50) was 8.39 µM.

As to `CCn1ncc(C2=NOC(C(=O)NCc3ccccc3)C2)c1C` (stereo unspecified), the IC50 is > 80 µM (inactive).

As to `CCN1/C(=C/c2ccc3cc(C)ccc3[n+]2CC)Sc2ccc3sccc3c21`, the IC50 was 9.39 µM.

`CCOCCOC(=O)c1[nH]c2c(c1C)C(=O)CC(c1cccs1)C2` (stereo unspecified): the IC50 is > 80 µM (inactive).

`CN(C)c1ccc(-c2nn3c(-c4ccccc4Cl)nnc3s2)cc1`: the IC50 is > 80 µM (inactive).

For `Cc1nc2ccccc2c2c1CC(C(C)(Cl)Br)O2` (stereo unspecified), the IC50 was 22.8 µM (inactive).

With `CCCC(=O)NC(c1ccc(C)cc1)c1ccc2cccnc2c1O` (stereo unspecified), the IC50 is > 80 µM (inactive).

With `Cc1noc(C)c1COc1ccc(C(=O)NNC(=O)c2ccccc2F)cc1`, the IC50 was > 80 µM (inactive).

In the case of `Cc1cccc(N2CCN(C(=O)c3c(-c4ccccc4Cl)noc3C)CC2)c1C`, the IC50 is > 80 µM (inactive).

On to `CN1/C(=C\C(=O)C[n+]2ccc3ccccc3c2)C(C)(C)c2ccccc21`, for which the IC50 was > 80 µM (inactive).

Take `CC[n+]1cc(C)ccc1/C=C/c1ccc(N(C)C)cc1`: the IC50 was > 80 µM (inactive).

Take `COc1cc(/C=C/C(=O)c2ccc([N+](=O)[O-])o2)ccc1O`: the concentration for half-maximal inhibition (IC50) was 14.5 µM.

As for `CCCOC(=O)c1[nH]c2c(c1C)C(=O)CC(c1cccs1)C2` (stereo unspecified), the IC50 was > 80 µM (inactive).

As to `COc1cc(NCCCCCCCN)c2ncccc2c1`, the IC50 was 41.4 µM (inactive).

`CCCCOc1ccccc1C1CC(=O)NC2=C1C(=O)CCC2` (stereo unspecified): the IC50 was > 80 µM (inactive).

As to `CCC(=O)NC(c1cccs1)c1ccc2cccnc2c1O` (stereo unspecified), the IC50 is > 80 µM (inactive).

With `O=C(Nc1ccc(N2CCOCC2)cc1)c1ccc(Cl)c(S(=O)(=O)N2CCCCC2)c1`, the IC50 was > 80 µM (inactive).

Regarding `CCOC(=O)c1[nH]c(C)c(C(=O)OCC(=O)NC(C)c2ccc(F)cc2)c1C` (stereo unspecified), the IC50 was > 80 µM (inactive).

For the compound `Cn1nc(C(C)(C)C)cc1C(=O)NCc1cc(F)cc2c1OCOC2`, the IC50 is > 80 µM (inactive).

Consider `Cc1c(C(=O)N/N=C/c2ccc(Cl)cc2)[nH]c2ccc(Cl)cc12`, for which the IC50 was > 80 µM (inactive).

For the compound `COc1ccccc1NC(=O)C1=C(C)Nc2nc3ccccc3n2C1c1cccs1` (stereo unspecified), the IC50 was > 80 µM (inactive).

As to `CCc1ccc2nc(SCC(=O)Nc3ccccc3N3CCOCC3)c(C#N)cc2c1`, the IC50 is > 80 µM (inactive).

Turning to `COc1cc(-c2noc(C)c2-c2ccc(N(C)C)nc2)cc(OC)c1OC`, the IC50 is > 80 µM (inactive).

The values are drawn from PubChem BioAssay AID489033 (Sanford-Burnham Center for Chemical Genomics, 2010).
